# Assay results taken from patent US8063096B2, “Spirocyclic 3-phenyl-3substituted-4-ketolactams and-lactones” (Bayer Cropscience AG, priority 2001, dated 2011).
# How the values were obtained:
# Assay type in all cases: in vivo
# Spodoptera frugiperda = Spodoptera frugiperda test; details: 500 ppm active compound, cabbage leaves dipped
# Procedure: (§1) [table] To produce a suitable preparation of active compound, 1 part by weight of active compound is mixed with the stated amounts of solvent and emulsifier, and the concentrate is diluted with emulsifier-containing water to the desired concentration. Cabbage leaves (Brassica oleracea) are treated by being dipped into the preparation of active compound of the desired concentration and are populated with caterpillars of the army worm (Spodoptera frugiperda) while leaves are still moist. After the desired period of time, the kill in % is determined. 100% means that all caterpillars have been killed; 0% means that none of the caterpillars have been killed.
# Tetranychus urticae = assay: Tetranychus test (OP-resistant/dip treatment); details: 100 ppm active compound, bean plants dipped, OP-resistant
# Procedure: [table] To produce a suitable preparation of active compound, 1 part by weight of active compound is mixed with the stated amounts of solvent and emulsifier, and the concentrate is diluted with emulsifier-containing water to the desired concentration. Bean plants (Phaseolus vulgaris) which are heavily infested by all stages of the greenhouse […] spider mite (Tetranychus urticae) are dipped into a preparation of active compound of the desired concentration. After the desired period of time, the activity in % is determined. 100% means that all spider mites have been killed; 0% means that none of the spider mites have been killed.
# Alopecurus [1] = assay: Pre-emergence test, Alopecurus; details: pre-emergence/greenhouse; 250 g of ai/ha; after three weeks
# Procedure: (§2) [table] To produce a suitable preparation of active compound, 1 part by weight of active compound is mixed with the stated amount of solvent, the stated amount of emulsifier is added and the concentrate is diluted with water to the desired concentration. Seeds of the test plants are sown in normal soil. After about 24 hours, the soil is sprayed with the preparation of active compound such that the particular amounts of active compound desired are applied per unit area. The concentration of the spray liquor is chosen such that the particular amounts of active compound desired are applied in 1000 l of water/ha. After three weeks, the degree of damage to the plants is rated in % damage in comparison to the development of the untreated control. The figures denote: • 0%=no effect (like untreated control) • 100%=total destruction
# Avena fatua [2] = assay: Pre-emergence test, Avena fatua; details: pre-emergence/greenhouse; 250 g of ai/ha; after three weeks
# Procedure: as §2
# Echinochloa [3] = assay: Pre-emergence test, Echinochloa; details: pre-emergence/greenhouse; 250 g of ai/ha; after three weeks
# Procedure: as §2
# Setaria [4] = assay: Pre-emergence test, Setaria; details: pre-emergence/greenhouse; 250 g of ai/ha; after three weeks
# Procedure: as §2
# Amaranthus [5] = assay: Pre-emergence test, Amaranthus; details: pre-emergence/greenhouse; 250 g of ai/ha; after three weeks
# Procedure: as §2
# Sinapis [6] = assay: Pre-emergence test, Sinapis; details: pre-emergence/greenhouse; 250 g of ai/ha; after three weeks
# Procedure: as §2
# Alopecurus [7] = assay: Post-emergence test, Alopecurus; details: post-emergence/greenhouse; 250 g of ai/ha; after three weeks
# Procedure: as §2, with “Test plants” for “Seeds”, “a height of 5-15 cm” for “the test plants”, “are” for “are sown in normal soil. After about 24 hours, the soil is”, “(=like” for “(like”
# Avena fatua [8] = assay: Post-emergence test, Avena fatua; details: post-emergence/greenhouse; 250 g of ai/ha; after three weeks
# Procedure: as §2, with “Test plants” for “Seeds”, “a height of 5-15 cm” for “the test plants”, “are” for “are sown in normal soil. After about 24 hours, the soil is”, “(=like” for “(like”
# Echinochloa [9] = assay: Post-emergence test, Echinochloa; details: post-emergence/greenhouse; 250 g of ai/ha; after three weeks
# Procedure: as §2, with “Test plants” for “Seeds”, “a height of 5-15 cm” for “the test plants”, “are” for “are sown in normal soil. After about 24 hours, the soil is”, “(=like” for “(like”
# Setaria [10] = assay: Post-emergence test, Setaria; details: post-emergence/greenhouse; 250 g of ai/ha; after three weeks
# Procedure: as §2, with “Test plants” for “Seeds”, “a height of 5-15 cm” for “the test plants”, “are” for “are sown in normal soil. After about 24 hours, the soil is”, “(=like” for “(like”
# Amaranthus [11] = assay: Post-emergence test, Amaranthus; details: post-emergence/greenhouse; 250 g of ai/ha; after three weeks
# Procedure: as §2, with “Test plants” for “Seeds”, “a height of 5-15 cm” for “the test plants”, “are” for “are sown in normal soil. After about 24 hours, the soil is”, “(=like” for “(like”
# Sinapis [12] = assay: Post-emergence test, Sinapis; details: post-emergence/greenhouse; 250 g of ai/ha; after three weeks
# Procedure: as §2, with “Test plants” for “Seeds”, “a height of 5-15 cm” for “the test plants”, “are” for “are sown in normal soil. After about 24 hours, the soil is”, “(=like” for “(like”
# Plutella xylostella = assay: Plutella test; details: 500 ppm active compound, cabbage leaves dipped
# Procedure: as §1, with “diamondback moth (Plutella xylostella)” for “army worm (Spodoptera frugiperda)”
# Aphis gossypii [13] = assay: Test for persistency: Aphis gossypii (root-systemic action); details: 4 ppm in soil, cotton
# Procedure: (§3) [table] To produce a suitable preparation of active compound, 1 part by weight of active compound is mixed with the stated amounts of solvent and emulsifier, and the concentrate is diluted with water to the desired concentration. The preparation of active compound is mixed intimately with the soil. The stated concentration refers to the amount of active compound per volume unit of soil (mg/l). The treated soil is filled into pots, and into these pots is planted cotton at the cotyledon stage. In this way, the active compound can be taken up from the soil into the roots of the plants and be transported into the leaves. After the stated number of days, cotton aphids (Aphis gossypii) are, in infection chambers, placed on the leaves. After the desired period of time, the kill in % is determined. 100% means that all aphids have been killed; 0% means that none of the aphids have been killed.
# Myzus persicae = assay: Test for persistency: Myzus persicae (root-systemic action); details: 4 ppm in soil, broad beans
# Procedure: as §3, with “pre-germinated broad beans.” for “cotton at the cotyledon stage.”, “peach” for “cotton”, “(Myzus persicae)” for “(Aphis gossypii)”
# Aphis gossypii [14] = assay: Aphis gossypii test (leaf dip, cotton); details: 500 ppm active compound, cotton leaves dipped
# Procedure: as §1, with “Cotton” for “Cabbage”, “(Gossypium hirsutum) which are heavily infested by the cotton aphids (Aphis gossypii)” for “(Brassica oleracea)”, “concentration.” for “concentration and are populated with caterpillars of the army worm (Spodoptera frugiperda) while leaves are still moist.”, “aphids” for “caterpillars”
# Phaedon cochleariae = assay: Phaedon larvae test; details: 500 ppm active compound, cabbage leaves dipped
# Procedure: as §1, with “with larvae” for “with caterpillars”, “the mustard beetle (Phaedon cochleariae)” for “the army worm (Spodoptera frugiperda)”, “all beetle larvae” for “all caterpillars”, “the beetle larvae” for “the caterpillars”
SMILES,Kill rate in % after 7d (Spodoptera frugiperda),Kill rate in % after 7d (Plutella xylostella),Kill rate in % after 7d (Aphis gossypii [13]; infection after 7 d),Kill rate in % after 7d (Aphis gossypii [13]; infection after 21 d),Kill rate in % after 7d (Aphis gossypii [13]; infection after 35 d),Kill rate in % after 7d (Myzus persicae; infection after 7 d),Kill rate in % after 7d (Myzus persicae; infection after 21 d),Kill rate in % after 7d (Myzus persicae; infection after 35 d),Kill rate in % after 6d (Aphis gossypii [14]),further results
COC1CCC2(CC1)NC(=O)C(Cl)(c1c(C)cc(C)cc1Cl)C2=O (stereo not drawn) [Ex. I-1-a-8],100%,,,,,,,,,"Kill rate in % after 7d (Tetranychus urticae): 100%; % damage, Alopecurus (Alopecurus [1]): 100%; % damage, Avena fatua (Avena fatua [2]): 100%; % damage, Echinochloa (Echinochloa [3]): 100%; % damage, Setaria (Setaria [4]): 100%; % damage, Amaranthus (Amaranthus [5]): 100%; % damage, Sinapis (Sinapis [6]): 100%; % damage, Alopecurus (Alopecurus [7]): 100%; % damage, Avena fatua (Avena fatua [8]): 90%; % damage, Echinochloa (Echinochloa [9]): 100%; % damage, Setaria (Setaria [10]): 100%; % damage, Amaranthus (Amaranthus [11]): 90%; % damage, Sinapis (Sinapis [12]): 80%"
Cc1cc(Br)cc(Cl)c1C1(Cl)C(=O)NC2(CCOCC2)C1=O (stereo not drawn) [Ex. I-1-c-2],,100%,100%,98^ %,98^ %,100%,100%,99%,,
COC1CCC2(CC1)NC(=O)C(Cl)(c1ccc(C)cc1Cl)C2=O (stereo not drawn) [Ex. I-1-a-3],100%,,,,,,,,,
COC1CCC2(CC1)NC(=O)C(Cl)(c1cc(C)ccc1Br)C2=O (stereo not drawn) [Ex. I-1-a-28],,100%,,,,,,,90%,Kill rate in % after 7d (Phaedon cochleariae): 100%
Cc1cc(Br)cc(C)c1C1(Cl)C(=O)NC2(CCOCC2)C1=O (stereo not drawn) [Ex. I-1-c-3],,100%,100%,98^ %,98^ %,99%,100%,99%,90%,
